Values joined by “and” are separate entries in the source; they are usually repeats but may differ in a detail not shown here. Identical values can stand only once.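 All cell lines were grown in 96-well plates and treated with compound for 48 hours. GI50 = concentration required for 50% inhibition of growth. TGI: concentration producing complete growth inhibition.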
What was measured:
Experiment in all cases: NCI anticancer screen, dose series, 48 h
[1] = system: RXF 393 renal
[2] = system: IGROV1 ovarian
[3] = system: A498 renal
[4] = system: SF-295 CNS
[5] = system: RPMI-8226 leukemia
[6] = system: T-47D breast
[7] = system: PC-3 prostate
[8] = system: MCF7 breast
[9] = system: SF-539 CNS
[10] = system: MALME-3M melanoma

SMILES	GI50 [1]	TGI [1]	GI50 [2]	TGI [2]	GI50 [3]	TGI [3]	GI50 [4]	TGI [4]	GI50 [5]	TGI [5]	GI50 [6]	TGI [6]	GI50 [7]	TGI [7]	GI50 [8]	TGI [8] [µM]	GI50 [9]	TGI [9]	GI50 [10]	TGI [10]
CS(=O)(=O)c1ccc(Oc2cc(F)cc(C#N)c2)c2c1[C@H](O)[C@H](F)[C@@H]2F	> 100 µM	> 100 µM	> 100 µM	> 100 µM	4.86 µM	> 100 µM	> 100 µM	> 100 µM	> 100 µM	> 100 µM	> 100 µM	> 100 µM	> 100 µM	> 100 µM	> 100 µM	> 100	> 100 µM	> 100 µM	> 100 µM	> 100 µM
Cn1ccnc1C(=O)/C=C/c1ccc(CC(=O)Nc2ccc(Cl)cc2)cc1	2.97 µM	> 25 µM	5.27 µM	> 25 µM	> 25 µM	> 25 µM	7.39 µM	> 25 µM	0.959 µM	> 25 µM	4.3 µM	> 25 µM	1.37 µM	> 25 µM	0.891 µM	> 25	6.4 µM	> 25 µM	14.2 µM	> 25 µM
C=C1C(=O)O[C@H]2[C@H]1CC/C(COC(=O)C(=O)c1c[nH]c3ccccc13)=C\CC[C@@]1(C)O[C@@H]21	2.01 µM	3.61 µM	2.11 µM	4.39 µM	8.56 µM	20.7 µM	11.8 µM	24.9 µM	2.07 µM	10.9 µM	1.61 µM	4.47 µM	2.13 µM	4.37 µM	2.16 µM	8.83	1.75 µM	3.76 µM	2.09 µM	4.33 µM
CC(C)C[C@@H](NC(=O)[C@@H](Cc1ccccc1)NC(=O)c1cnccn1)B1O[C@H]2[C@H](O)[C@@H](C(=O)NCCCC[C@@H]3NC(=O)[C@@H](Cc4ccccc4)NC(=O)[C@H](CC(=O)O)NC(=O)CNC(=O)[C@H](CCCN=C(N)N)NC3=O)O[C@@H](CN)[C@H]2O1	0.00345 µM and < 0.005 µM	0.0135 µM and < 0.005 µM	0.0312 µM and 0.0214 µM	0.254 µM and 1.03 µM	0.00309 µM and 0.005 µM	0.0127 µM and 0.0106 µM	0.00486 µM and 0.005 µM	0.02 µM and 0.0147 µM	0.00373 µM and 0.005 µM	0.267 µM and 1.04 µM	0.00598 µM and 0.005 µM	0.0648 µM and 0.025 µM	0.0273 µM and 0.0153 µM	0.389 µM and 0.563 µM	0.00413 µM and 0.005 µM	0.789	0.00319 µM and 0.005 µM	0.015 µM and 0.0123 µM	0.00457 µM and 0.005 µM	0.127 µM and 0.591 µM
CC(C)(C)[OH+][O-].[O-]c1ccc(Cl)cc1C=Nc1ccc(Cl)cc1[O-].[O]=[V]	17.3 µM	36.6 µM	0.542 µM	14.2 µM	27.7 µM	64.2 µM	10.7 µM	33.5 µM	6.97 µM	> 100 µM	11.9 µM	98.7 µM	26.1 µM	> 100 µM	11.4 µM	30	17.8 µM	32.5 µM	1.81 µM	11.9 µM
O=C1c2ccccc2-c2c1c1ccccc1c(=O)n2CCCNCCCn1c2c(c3ccccc3c1=O)C(=O)c1ccccc1-2	4.07 µM	> 29.1 µM	1.63 µM	> 50 µM	8.97 µM	17.4 µM	3.52 µM	> 21.8 µM	2.58 µM	15.9 µM	10.7 µM	27.7 µM	2.08 µM	5.52 µM	1.33 µM	> 10.5	3.83 µM	13 µM	12.6 µM	26.2 µM
O=C(Nc1ccc(S(=O)(=O)Nc2nccs2)cc1)c1cccnc1Nc1cccc(Cl)c1	14.4 µM	33.4 µM	15.4 µM	53 µM	10.1 µM	23.7 µM	16.5 µM	43.5 µM	19.8 µM	89.2 µM	8.42 µM	> 100 µM	14.3 µM	43 µM	12.2 µM	32.5	16.2 µM	44.5 µM	16.9 µM	48.1 µM
CCN1C(=O)C/C(=C\C(C)=O)Nc2ccccc21	–	> 100 µM	–	> 100 µM	> 100 µM	> 100 µM	–	> 100 µM	> 100 µM	> 100 µM	> 100 µM	> 100 µM	> 100 µM	> 100 µM	> 100 µM	> 100	–	> 100 µM	–	> 100 µM
COc1cccc(-c2nn(-c3ccccc3)cc2-c2ccnc(NCCNS(=O)(=O)c3ccc(Cl)cc3)c2)c1	5.03 µM	> 100 µM	6.63 µM	> 100 µM	3.4 µM	> 100 µM	3.89 µM	57.5 µM	2.74 µM	13.3 µM	2.52 µM	8.66 µM	2.44 µM	> 100 µM	2.98 µM	18.4	7.35 µM	> 100 µM	3.8 µM	> 100 µM
COc1ccc(C(=O)Cn2c(C(=O)c3ccc(Cl)cc3)nc3ccccc32)cc1	3.62 µM	20.5 µM	25.7 µM	> 100 µM	14.3 µM	> 100 µM	22.8 µM	> 100 µM	1.75 µM	> 77.8 µM	> 38.9 µM	> 100 µM	21.2 µM	> 100 µM	3 µM	> 100	99.3 µM	> 100 µM	> 56.3 µM	> 100 µM
Oc1c(CN2CCC(N3CCOCC3)CC2)cc(Cc2cc(CN3CCC(N4CCOCC4)CC3)c(O)c3ncccc23)c2cccnc12	3.06 µM	18.7 µM	0.61 µM	48.2 µM	3.74 µM	13.9 µM	0.549 µM	3.13 µM	3.77 µM	> 100 µM	1.11 µM	17 µM	0.565 µM	> 100 µM	0.543 µM	> 100	1.11 µM	2.9 µM	4.22 µM	26.5 µM
O=[N+]([O-])c1ccc(N2CCN(Cc3ccccc3)CC2)c2c1no[n+]2[O-]	1.31 µM	2.76 µM	0.951 µM	2.66 µM	1.52 µM	4.35 µM	1.38 µM	2.84 µM	1.76 µM	4.64 µM	1.41 µM	3.89 µM	1.25 µM	2.7 µM	0.803 µM	2.44	1.54 µM	3 µM	1.6 µM	3.3 µM

Reference: PubChem BioAssay (NCI)
